In patent US11026942B2, “Agent for preventing and/or treating Alzheimer's disease” (KYOTO UNIVERSITY, priority 2015, dated 2021):
Where two headings read alike, the source gives them in different places.

Assays:
Assay type in all cases: cell-based, human
Aβ = Aβ pathology (Aβ amount in medium) in cerebral cortex nerve cells induced from FAD1 patient iPS cells; conditions: for Aβ lesion (Aβ amount) / Aβ pathology: FAD1 nerve cells; for Aβ lesion (Aβ amount): compounds added 8 days after differentiation induction, Aβ amount two days later; for Aβ pathology: low dose
Text: To perform induction from iPS cells to the cerebral cortex nerve early and with high reproducibility, iPS cells introduced with human Neurogenin 2 gene (NGN2) linked to doxycycline-inducible promoter by using PiggyBac were used (FIG. 1a, FIG. 1b, FIG. 4a and FIG. 4b). IPS cells prepared from 4 patients with familial Alzheimer's disease (FAD), 2 patients with sporadic Alzheimer's disease (SAD) and 4 healthy individuals (HC) were used. The iPS cells were established by the method described in Okita K et al., Nature. […]
(§1) To further study reproducibility of the candidate drugs obtained by the primary screening, secondary screening was conducted. In addition to Aβ40, Aβ42, Aβ42/40 ratio, Aβ38, Aβ43, sAPPα, sAPPβ were also studied and each numerical value was obtained.

Aβ38 = Aβ38 in FAD1 iPS cell-derived nerve cells (secondary screening); parameters: scale not given here
Description: as §1

Aβ42 = Aβ42 in FAD1 iPS cell-derived nerve cells (primary/secondary screening, dose dependency)
Method in brief: (§2)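 Cerebral cortex neurons were induced from FAD1 patient iPS cells by doxycycline-inducible NGN2, delivered by PiggyBac. Aβ40 and Aβ42 in the culture medium gave the Aβ42/40 ratio, with dose dependency examined in primary and secondary screens. The secondary screen also covered Aβ38, Aβ43, sAPPα and sAPPβ.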

sAPPβ = sAPPβ in FAD1 iPS cell-derived nerve cells (secondary screening); parameters: sAPPβ: scale not given here; conditions: for sAPPβ: secondary screening, FAD1 iPS cell-derived nerve cells
Description: as §1

sAPPα = sAPPα in FAD1 iPS cell-derived nerve cells (secondary screening); parameters: scale not given here; conditions: secondary screening, FAD1 iPS cell-derived nerve cells
Description: as §1

Aβ42/40 ratio = Aβ42/40 ratio in FAD1 iPS cell-derived nerve cells (primary/secondary screening, dose dependency); conditions: secondary screening
Method in brief: as §2

Aβ43 = Aβ43 in FAD1 iPS cell-derived nerve cells (secondary screening); parameters: scale not given here
Description: as §1

Aβ40 = conditions: secondary screening, FAD1 iPS cell-derived nerve cells, numerical value (Aβ change rate)
Text: To perform induction from iPS cells to the cerebral cortex nerve early and with high reproducibility, iPS cells introduced with human Neurogenin 2 gene (NGN2) linked to doxycycline-inducible promoter by using PiggyBac were used (FIG. 1a, FIG. 1b, FIG. 4a and FIG. 4b). IPS cells prepared from 4 patients with familial Alzheimer's disease (FAD), 2 patients with sporadic Alzheimer's disease (SAD) and 4 healthy individuals (HC) were used. The iPS cells were established by the method described in Okita K et al., Nature.
Structural formulas (those in the form of salt or halide are also described as free form) and the general names of the candidate compounds are shown in Table 1.
as §1

[1] = secondary screening, FAD1 iPS cell-derived nerve cells, numerical value (Aβ change rate)

## CC(NC(=O)c1cc(C(=O)NC(Cc2ccccc2)C(O)CNC2CC2)cc(N(C)S(C)(=O)=O)c1)c1ccccc1 (racemic) [RACE inhibitor IV]
Aβ
  Aβ lesion (Aβ amount): improved Aβ lesion

## CC(C(=O)O)c1ccc(-c2ccccc2)c(F)c1 (stereo not shown) [Flurbiprofen]
Aβ
  Aβ pathology: not improved

## CC(C)C[C@H](C(=O)O)c1cc(-c2ccc(C(F)(F)F)cc2)cc(-c2ccc(C(F)(F)F)cc2)c1 [JNJ-40418677]
Aβ
  Aβ lesion (Aβ amount): improved Aβ lesion

## COc1cc(C)c(/C=C/C(C)=C/C=C/C(C)=C/C(=O)O)c(C)c1C [acitretin]
Aβ
  Aβ lesion (Aβ amount): improved Aβ lesion

## CC(N)Cc1ccccc1 (stereo not shown) [amphetamine]
Aβ
  Aβ suppressive effect (dopamine series): show effects

## CC(C)C[C@H]1C(=O)N2CCC[C@H]2[C@]2(O)O[C@](NC(=O)[C@@H]3C=C4c5cccc6[nH]c(Br)c(c56)C[C@H]4N(C)C3)(C(C)C)C(=O)N12 [compound 52, BROMOCRIPTINE]
Aβ38
  Aβ38: 0.97
Aβ42; [1]
  Aβ42: 0.63
sAPPβ; sAPPα, sAPPβ, sAPPβ/α ratio
  action suggested from the sAPP metabolism: BSI-like action
sAPPβ
  sAPPβ: 0.79
sAPPα
  sAPPα: 1.18
Aβ
  Aβ suppressive effect (dopamine series): show effects
Aβ42/40 ratio
  Ratio Aβ42/40: 0.64
Aβ43
  Aβ43: 0.65

## NCCc1ccc(O)c(O)c1 [compound 90, DOPAMINE]
Aβ38
  Aβ38: 1.01
Aβ42; [1]
  Aβ42: 0.88
sAPPβ
  sAPPβ: 0.95
sAPPα
  sAPPα: 0.91
Aβ; neuron derived from iPS cell (FAD1)
  Aβ suppressive effect (dopamine series): show effects
Aβ42/40 ratio
  Ratio Aβ42/40: 0.92
Aβ43
  Aβ43: 0.96

## CN[C@H](CC(C)C)C(=O)N[C@H]1C(=O)N[C@@H](CC(N)=O)C(=O)N[C@H]2C(=O)N[C@H]3C(=O)N[C@H](C(=O)N[C@H](C(=O)O)c4cc(O)cc(O)c4-c4cc3ccc4O)[C@H](O)c3ccc(c(Cl)c3)Oc3cc2cc(c3O[C@@H]2O[C@H](CO)[C@@H](O)[C@H](O)[C@H]2O[C@H]2C[C@](C)(N)[C@H](O)[C@H](C)O2)Oc2ccc(cc2Cl)[C@H]1O [compound 105, VANCOMYCIN]
Aβ38
  Aβ38: 1.29
Aβ42; [1]
  Aβ42: 1.06
sAPPβ
  sAPPβ: 1.36
sAPPα
  sAPPα: 1.33
Aβ42/40 ratio
  Ratio Aβ42/40: 1.05
Aβ43
  Aβ43: 1.2
Aβ40
  Aβ40: 1.01

## NCCc1cnc[nH]1 [compound 121, HISTAMINE]
Aβ38
  Aβ38: 1.22
Aβ42; [1]
  Aβ42: 1.02
sAPPβ
  sAPPβ: 1.15
sAPPα
  sAPPα: 1.08
Aβ42/40 ratio
  Ratio Aβ42/40: 1.09
Aβ43
  Aβ43: 1.23

## Nc1nc(=S)c2[nH]cnc2[nH]1 [compound 122, THIOGUANINE]
Aβ38
  Aβ38: 0.91
Aβ42; [1]
  Aβ42: 0.69
sAPPβ
  sAPPβ: 0.9
sAPPα
  sAPPα: 0.95
Aβ42/40 ratio
  Ratio Aβ42/40: 0.88
Aβ43
  Aβ43: 0.92

## Cn1c(=O)c2[nH]c(Cl)nc2n(C)c1=O [compound 124, 8-chlorotheophylline]
Aβ38
  Aβ38: 1.06
Aβ42; [1]
  Aβ42: 0.98
sAPPβ
  sAPPβ: 1.02
sAPPα
  sAPPα: 0.97
Aβ42/40 ratio
  Ratio Aβ42/40: 1.01
Aβ43
  Aβ43: 0.97

## CC1=NS(=O)(=O)c2cc(Cl)ccc2N1 [compound 125, DIAZOXIDE]
Aβ38
  Aβ38: 1.08
Aβ42; [1]
  Aβ42: 0.92
sAPPβ
  sAPPβ: 0.84
sAPPα
  sAPPα: 0.84
Aβ42/40 ratio
  Ratio Aβ42/40: 0.97
Aβ43
  Aβ43: 0.9

## CC(C)CC(N(C)C)C1(c2ccc(Cl)cc2)CCC1 (stereo not shown) [compound 126, SIBUTRAMINE]
Aβ38
  Aβ38: 1.05
Aβ42; [1]
  Aβ42: 0.88
sAPPβ
  sAPPβ: 0.92
sAPPα
  sAPPα: 0.8
Aβ42/40 ratio
  Ratio Aβ42/40: 0.87
Aβ43
  Aβ43: 0.87

## O=C1c2ccccc2C(=O)C1c1ccc(Cl)cc1 [compound 127, CHLORINDIONE]
Aβ38
  Aβ38: 0.92
Aβ42; [1]
  Aβ42: 0.79
sAPPβ
  sAPPβ: 0.67
sAPPα
  sAPPα: 0.74
Aβ42/40 ratio
  Ratio Aβ42/40: 0.85
Aβ43
  Aβ43: 0.87

## CN1C(=O)CCS(=O)(=O)C1c1ccc(Cl)cc1 (stereo not shown) [compound 128, CHLORMEZANONE]
Aβ38
  Aβ38: 1.05
Aβ42; [1]
  Aβ42: 0.86
sAPPβ
  sAPPβ: 0.72
sAPPα
  sAPPα: 0.85
Aβ42/40 ratio
  Ratio Aβ42/40: 0.78
Aβ43
  Aβ43: 0.85

## CN(C)CCN(Cc1ccc(Cl)cc1)c1ccccn1 [compound 129, CHLOROPYRAMINE]
Aβ38
  Aβ38: 0.96
Aβ42; [1]
  Aβ42: 0.83
sAPPβ
  sAPPβ: 0.86
sAPPα
  sAPPα: 0.87
Aβ42/40 ratio
  Ratio Aβ42/40: 0.81
Aβ43
  Aβ43: 0.89

## FC(F)(F)COCC(F)(F)F [compound 130, FLUROTHYL]
Aβ38
  Aβ38: 1.03
Aβ42; [1]
  Aβ42: 0.8
sAPPβ
  sAPPβ: 0.69
sAPPα
  sAPPα: 0.79
Aβ42/40 ratio
  Ratio Aβ42/40: 0.85
Aβ43
  Aβ43: 0.81

## Cc1ccc(NC(=O)c2ccc(CN3CCN(C)CC3)cc2)cc1Nc1nccc(-c2cccnc2)n1 [imatinib]
Aβ
  Aβ pathology: not improved

## CC(C)[C@H](O)C(=O)N[C@@H](C)C(=O)N[C@@H]1C(=O)N(C)CCc2ccccc21 [semagacestat]
Aβ42; FAD1 nerve cells, low dose
  Aβ42: increased
Aβ
  Aβ lesion (Aβ amount): improved Aβ lesion

## CC1=C(CC(=O)O)c2cc(F)ccc2/C1=C\c1ccc([S+](C)[O-])cc1 (stereo not shown) [sulindac]
Aβ
  Aβ pathology: not improved

## BITOSCANATE [compound 123]
Aβ38
  Aβ38: 1.01
Aβ42; [1]
  Aβ42: 0.89
sAPPβ
  sAPPβ: 0.73
sAPPα
  sAPPα: 0.76
Aβ42/40 ratio
  Ratio Aβ42/40: 0.96
Aβ43
  Aβ43: 1
Aβ40
  Aβ40: 0.93

## CARBADOX [compound 29]
Aβ38
  Aβ38: 0.87
Aβ42; [1]
  Aβ42: 0.74
sAPPβ
  sAPPβ: 0.78
sAPPα
  sAPPα: 0.86
Aβ42/40 ratio
  Ratio Aβ42/40: 0.88
Aβ43
  Aβ43: 0.76
Aβ40
  Aβ40: 0.84

## CEFAMANDOLE [compound 66]
Aβ38
  Aβ38: 1.11
Aβ42; [1]
  Aβ42: 0.97
sAPPβ
  sAPPβ: 0.78
sAPPα
  sAPPα: 0.79
Aβ42/40 ratio
  Ratio Aβ42/40: 0.9
Aβ43
  Aβ43: 1.11
Aβ40
  Aβ40: 1.08

## CINCHONINE [compound 24]
Aβ42; [1]
  Aβ42: 0.88
sAPPβ
  sAPPβ: 0.68
sAPPα
  sAPPα: 0.76
Aβ43
  Aβ43: 0.81
Aβ40
  Aβ40: 0.87

## DESOXYCORTICOSTERONE [compound 98]
Aβ38
  Aβ38: 1.09
Aβ42; [1]
  Aβ42: 0.9
sAPPβ
  sAPPβ: 0.87
sAPPα
  sAPPα: 0.88
Aβ42/40 ratio
  Ratio Aβ42/40: 0.9
Aβ43
  Aβ43: 0.89
Aβ40
  Aβ40: 1

## RIFAXIMIN [compound 97]
Aβ38
  Aβ38: 1.09
Aβ42; [1]
  Aβ42: 0.84
sAPPβ
  sAPPβ: 0.95
sAPPα
  sAPPα: 0.91
Aβ42/40 ratio
  Ratio Aβ42/40: 0.91
Aβ43
  Aβ43: 0.92
Aβ40
  Aβ40: 0.92

## TELITHROMYCIN [compound 108]
Aβ42; [1]
  Aβ42: 0.85
sAPPβ
  sAPPβ: 0.68
sAPPα
  sAPPα: 0.71
Aβ43
  Aβ43: 0.84
Aβ40
  Aβ40: 0.99
